From patent publication US11649220B2 (DEMOTECH.INC., priority 2018, dated 2023)

Tests used:
[1] = test system: Malondialdehyde (MDA) in serum; assay: In vivo anti-lipid oxidation experiment (serum MDA, TBA method); design: inhibition rate %: concentration or dose not given beside the values; settings: MAD lipid peroxidation in vivo; for inhibition rate %: relative to solvent DMSO and Chow averages; for avarage value of OD: serum, TBA method, 532 nm
Source text: Experimental principle: Malondialdehyde (MDA) in liposome degradation products could condense with thiobarbituric acid (TBA) to form a red product which has a maximum absorption peak at 532 nm. The spectrophotometer was used to measure the relative absorption value to calculate the antioxidant value.
Reagents: Malondialdehyde (MDA) test kit (article number: A003-1, […], Nanjing Jiancheng), glacial acetic acid of analytically pure grade.
Reagent preparations: 1) Reagent I: Reagent 1 in the kit was taken out from the refrigerator and subjected to natural warming until a transparent liquid is obtained; 2) Reagent II: 170 mL of double-distilled water was added to each bottle and mixed; 3) Reagent III: A dry powder in the kit was dissolved in 60 mL of double-distilled water at 90 to 100° C. After the dry powder was dissolved totally, 30 mL of glacial acetic acid was added and kept in dark place; 4) Standard: 10 nmol/mL tetraethoxypropane.
Experimental procedures: 1) Blank tube: To 2 mL centrifuge tube were added anhydrous ethanol (70 μl), Reagent I (70 μl), Reagent II (0.8 mL) and Reagent III (0.8 mL) in sequence; 2) Standard tube: To 2 mL centrifuge tube were added standard (70 μl), Reagent I (70 μl), Reagent 11 (0.8 mL) and Reagent III (0.8 mL) in sequence; 3) Measuring tube: To 2 mL centrifuge tube were added the serum to be tested and physiological saline (the total volume of serum and physiological saline is 70 μl), Reagent I (70 μl), Reagent II (0.8 mL) and Reagent III (0.8 mL) in sequence; 4) Control tubes: all samples are set up with corresponding control tubes. To a 2 mL centrifuge tube were added the serum to be tested and physiological saline (the total volume of serum and physiological saline is 70 μl), Reagent I (70 μl), Reagent II (0.8 mL) and 50% glacial acetic acid (0.8 mL) in sequence.
After the above reagents were added, the mixture was mixed homogenously. Then the mixture was left in the water bath at 95° C. for 60 minutes. The sample was centrifuged at 4000 rpm for 10 minutes. The supernatant was taken for the measurement of the OD value.
Experimental data processing: the MDA content in serum was calculated as follows: MDA=(OD valuemeasured−OD valuecontrol)/OD valuestandard*concentration of the standard Inhibition rate %=100−(ODsample-average value−average value of Chow)/(average value of the solvent DMSO−average value of Chow)*100

[2] = In vitro free radical inhibition test (DPPH method); settings: 8 μL of 20 mmol/L compound in 1 mL DPPH 0.059 mg/mL ethanol, 60 min dark, 517 nm; for inhibition rate %: DPPH; for Relative inhibition ability on free radicals: inhibition rate of AGI1067 on DPPH defined as 100
Source text: 1. In Vitro Free Radical Inhibition Test (DPPH Method)
The single electron of DPPH radical has a strong absorption at […], and its alcohol solution is purple. In the presence of a free radical scavenger, the absorption of DPPH radical is weakened or disappeared for the reason that the free radical scavenger is paired with the single electron of DPPH radical, and the degree of discoloration is quantitatively related to the number of electrons DPPH radical receives. Therefore, a spectrophotometer can be used to quickly and quantitatively analyze the free radical scavenging rate of the compound.
1) 1 mL solution of DPPH in absolute ethanol (concentration: 0.059 mg/mL) was taken; 2) 8 μL of the compound to be tested (20 mmol/L) were added; 3) after mixing well, the resultant was kept in dark at room temperature for 60 minutes, 4) the absorbance of the sample at 517 nm was measured.

SMILES | inhibition rate % [1] | avarage value of OD [1] | inhibition rate % [2] | Relative inhibition ability on free radicals [2]
CC(C)(Sc1cc(C(C)(C)C)c(O)c(C(C)(C)C)c1)Sc1cc(C(C)(C)C)c(O)c(C(C)(C)CCOC(=O)[C@H](c2ccccc2Cl)N2CCc3sccc3C2)c1 [Compound 15, (S)-3-(3-(tert-butyl)-5-((2-((3,5-di-tert-butyl-4-hydroxyphenyl)thio)propan-2-yl)thio)-2-hydroxyphenyl)-3-methylbutyl 2-(2-chlorophenyl)-2-(6,7-dihydrothieno[3,2-c]pyridin-5(4H)-yl)acetate] | 50.5% | 7.34 | 19.1% | 43.8
CC(C)(Sc1cc(C(C)(C)C)c(O)c(C(C)(C)C)c1)Sc1cc(C(C)(C)C)c(O)c(C(C)(C)CCN)c1 [Compound 16, 2-(4-amino-2-methylbutan-2-yl)-6-(tert-butyl)-4-((2-((3,5-di-tert-butyl-4-hydroxyphenyl)thio)propan-2-yl)thio)phenol] | 25.0% | 8.32 | 91.8% | 210.4
CCN(CC)CCOCCC(C)(C)c1cc(SC(C)(C)Sc2cc(C(C)(C)C)c(O)c(C(C)(C)C)c2)cc(C(C)(C)C)c1O [Compound 17, 2,6-di-tert-butyl-4-((2-((3-(tert-butyl)-5-(4-(2-(diethylamino)ethoxy)-2-methylbutan-2-yl)-4-hydroxyphenyl)thio)propan-2-yl)thio)phenol] | 74.0% | 6.43 | 27.8% | 63.7
CC(C)(Sc1cc(C(C)(C)C)c(O)c(C(C)(C)C)c1)Sc1cc(C(C)(C)C)c(O)c(C(C)(C)CCOCCN2CCOCC2)c1 [Compound 18, 2,6-di-tert-butyl-4-((2-((3-(tert-butyl)-4-hydroxy-5-(2-methyl-4-(2-morpholinoethoxy)butan-2-yl)phenyl)thio)propan-2-yl)thio)phenol] | 53.8% | 7.21 | 23.5% | 53.8
CC(C)(Sc1cc(C(C)(C)C)c(O)c(C(C)(C)C)c1)Sc1cc(C(C)(C)C)c(O)c(C(C)(C)CCOC(=O)CN)c1 [Compound 19, 3-(3-(tert-butyl)-5-((2-((3,5-di-tert-butyl-4-hydroxyphenyl)thio)propan-2-yl)thio)-2-hydroxyphenyl)-3-methylbutyl glycinate] | 27.9% | 8.21 | 32.1% | 42.6
CC(N)C(=O)OCCC(C)(C)c1cc(SC(C)(C)Sc2cc(C(C)(C)C)c(O)c(C(C)(C)C)c2)cc(C(C)(C)C)c1O (stereo not drawn) [Compound 20, 3-(3-(tert-butyl)-5-((2-((3,5-di-tert-butyl-4-hydroxyphenyl)thio)propan-2-yl)thio)-2-hydroxyphenyl)-3-methylbutyl alaninate] | 30.7% | 8.10 | 26.3% | 38.9
COC(=O)CN(CCC(C)(C)c1cc(SC(C)(C)Sc2cc(C(C)(C)C)c(O)c(C(C)(C)C)c2)cc(C(C)(C)C)c1O)CC(=O)OC [Compound 22, dimethyl 2,2′-((3-(3-(tert-butyl)-5-((2-((3,5-di-tert-butyl-4-hydroxyphenyl)thio)propan-2-yl)thio)-2-hydroxyphenyl)-3-methylbutyl)azanediyl)diacetate] | 36.2% | 7.89 | 42.6% | 97.6
CC(C)(Sc1cc(C(C)(C)C)c(O)c(C(C)(C)C)c1)Sc1cc(C(C)(C)C)c(O)c(C(C)(C)CCn2cncn2)c1 [Compound 24, 2,6-di-tert-butyl-4-((2-((3-(tert-butyl)-4-hydroxy-5-(2-methyl-4-(1H-1,2,4-triazol-1-yl)butan-2-yl)phenyl)thio)propan-2-yl)thio)phenol] | 53.3% | 7.23 | 19.2% | 34.8
CC(C)(Sc1cc(C(C)(C)C)c(O)c(C(C)(C)C)c1)Sc1cc(C(C)(C)C)c(O)c(C(C)(C)CCNS(=O)(=O)C2CC2)c1 [Compound 25, N-(3-(3-(tert-butyl)-5-((2-((3,5-di-tert-butyl-4-hydroxyphenyl)thio)propan-2-yl)thio)-2-hydroxyphenyl)-3-methylbutyl)cyclopropanesulfonamide] | 48.1% | 7.43 | 28.6% | 29.3
CC(C)(Sc1cc(C(C)(C)C)c(O)c(C(C)(C)C)c1)Sc1cc(C(C)(C)C)c(O)c(C(C)(C)CCOC(=O)CCC(=O)NCCS(=O)(=O)O)c1 [Compound 27, 2-(4-(3-(3-(tert-butyl)-5-((2-((3,5-di-tert-butyl-4-hydroxyphenyl)thio)propan-2-yl)thio)-2-hydroxyphenyl)-3-methylbutoxy)-4-oxobutanamido)ethane-1-sulfonic acid] | 30.2% | 8.12 | 18.1% | 41.5
CC(C)(C)C1=CC(=C2C=C(C(C)(C)C)C(=O)C(C(C)(C)C)=C2)C=C(C(C)(C)C)C1=O [Compound 29, 3,3′,5,5′-tetra-tert-butyl-[1,1′-bi(cyclohexylidene)]-2,2′,5,5′-tetraene-4,4′-dione, reference compound] | 7.9% | 8.98 | 8.8% | 20.1
CC(C)(Sc1cc(C(C)(C)C)c(O)c(C(C)(C)C)c1)Sc1cc(C(C)(C)C)c(OC(=O)CCC(=O)O)c(C(C)(C)C)c1 [Compound 31, 4-(2,6-di-tert-butyl-4-((2-((3,5-di-tert-butyl-4-hydroxyphenyl)thio)propan-2-yl)thio)phenoxy)-4-oxobutanoic acid, reference compound] | 49.1% | 7.39 | 43.6% | 100.0
